Assay results from patent publication US9834558B2, “Substituted bridged urea analogs as sirtuin modulators” (GLAXOSMITHKLINE LLC, priority 2013, dated 2017).
Structures can show the parent of a compound that is named as a salt. Each block holds one molecule with its values, some of them ahead of it.

Biological target: T1, SIRT1 (Homo sapiens, UniProt Q96EB6)
T1 sequence (Q96EB6 1-747): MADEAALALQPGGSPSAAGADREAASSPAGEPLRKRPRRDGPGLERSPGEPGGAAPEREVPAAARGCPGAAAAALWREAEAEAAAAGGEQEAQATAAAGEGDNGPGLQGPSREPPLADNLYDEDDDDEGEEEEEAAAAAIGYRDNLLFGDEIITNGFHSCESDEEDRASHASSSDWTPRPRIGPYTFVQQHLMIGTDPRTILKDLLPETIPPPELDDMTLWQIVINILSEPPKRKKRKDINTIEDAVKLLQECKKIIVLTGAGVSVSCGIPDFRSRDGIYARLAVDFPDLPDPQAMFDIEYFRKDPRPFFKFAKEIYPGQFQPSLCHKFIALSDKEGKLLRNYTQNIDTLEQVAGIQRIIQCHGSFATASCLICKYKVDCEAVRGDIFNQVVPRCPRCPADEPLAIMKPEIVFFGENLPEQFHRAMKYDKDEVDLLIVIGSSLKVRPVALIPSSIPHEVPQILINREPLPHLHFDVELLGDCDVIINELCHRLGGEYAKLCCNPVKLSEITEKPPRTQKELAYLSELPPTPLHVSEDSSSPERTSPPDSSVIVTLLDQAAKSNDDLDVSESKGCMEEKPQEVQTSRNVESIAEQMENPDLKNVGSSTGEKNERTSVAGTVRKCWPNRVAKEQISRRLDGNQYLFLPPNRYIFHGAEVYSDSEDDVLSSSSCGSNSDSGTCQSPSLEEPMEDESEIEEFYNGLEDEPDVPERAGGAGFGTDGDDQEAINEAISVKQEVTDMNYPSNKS
Experiment: Trp mass spectrometry assay of SIRT1 activation
Format: biochemical
Settings: for TRP Activity (EC1.5) / Emax: Trp peptide assay; for TRP Activity (EC1.5): EC1.5 = concentration that results in 150% activation of SIRT1; for Emax: maximum activity relative to control (100%), read-out: TRP MAX RESP (percent maximum fold activation)
Method in brief: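 N-terminal His-tagged human SIRT1 (10 nM, E. coli BL21(DE3)) with 0.5 μM Ac-RHKK(Ac)W-NH2 peptide and 120 μM βNAD+, 25 min at 25 °C in HEPES pH 7.5, formic acid stop. OAADPR or deacetylated peptide quantified by mass spectrometry; EC1.5 (50% activity increase over control) and Percent Maximum Activation reported.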

[1] = Trp mass spectrometry assay, EC1.5 = concentration of test compound that results in 150% activation of SIRT1
[2] = Trp peptide substrate, concentration giving 150% activation of SIRT1
[3] = concentration giving 150% activation of SIRT1, Trp peptide substrate
[4] = Trp mass spectrometry assay, concentration of test compound giving 150% activation of SIRT1

TRP Activity (EC1.5) (hydrochloride): A (A (EC1.5<1 μM))
Emax: > 150%
SMILES: O=C(Nc1ccccn1)N1c2nc(N3CC[C@H](C(F)(F)F)C3)ccc2N2CCC[C@H]1C2 [drawing 1225, (9S)-N-(pyridin-2-yl)-5-[(3S)-3-(trifluoromethyl)pyrrolidin-1-yl]-1,6,8-triazatricyclo[7.3.1.0 {2,7}]trideca-2(7),3,5-triene-8-carboxamide hydrochloride]

TRP Activity (EC1.5): B (B (EC1.5 1-25 μM))
Emax: > 150%
SMILES: Cc1ncc(-c2ccc3c(n2)N(C(=O)Nc2cnccn2)[C@H]2CCN3C2)cn1 [(9S)-5-(2-methylpyrimidin-5-yl)-N-(pyrazin-2-yl)-1,6,8-triazatricyclo[7.2.1.0 {2,7}]dodeca-2(7),3,5-triene-8-carboxamide]

Tryp AVG EC1.5 (μM) [1]: A (A (EC1.5<1 μM))
SMILES: CC(C)(C)OC(=O)N1CCC(c2cccc(NC(=O)N3c4nc(-c5cccc(C(F)(F)F)c5)ccc4N4CC[C@H]3C4)c2)C1 (stereo partly drawn) [Example 592]

Tryp AVG EC1.5 (μM) [1]: B (B (EC1.5 1-25 μM))
SMILES: O=C(NCCc1ccncc1)N1c2nc(-c3cccc(C(F)(F)F)c3)ccc2N2CC[C@H]1C2 [Example 613]

Tryp AVG EC1.5 (μM) [2]: C (C (EC1.5>25 μM))
SMILES: Cc1cccnc1NC(=O)N1c2nc(-c3cccc(Cl)c3)ccc2N2CC[C@H]1C2 [Example 106]

Tryp AVG EC1.5 (μM) [1]: B (B (EC1.5 1-25 μM))
SMILES: O=C(NCCCN1CCOCC1)N1c2nc(-c3cccc(C(F)(F)F)c3)ccc2N2CC[C@H]1C2 [Example 612]

Tryp AVG EC1.5 (μM) [2]: A (A (EC1.5<1 μM))
SMILES: Cc1cnc2c(NC(=O)N3c4nc(-c5cccc(C(F)(F)F)c5)ccc4N4CC[C@H]3C4)cccc2n1 [76 (8)]

TRP Activity (EC1.5): B (B (EC1.5 1-25 μM))
Emax: > 150%
SMILES: Cc1ncc(-c2ccc3c(n2)N(C(=O)Nc2cnccn2)[C@H]2CCN3C2)cc1F [(9S)-5-(5-fluoro-6-methylpyridin-3-yl)-N-(pyrazin-2-yl)-1,6,8-triazatricyclo[7.2.1.0 {2,7}]dodeca-2(7),3,5-triene-8-carboxamide]

Tryp AVG EC1.5 (μM) [1]: A (A (EC1.5<1 μM))
SMILES: Cc1nc(-c2cccc(NC(=O)N3c4nc(-c5cccc(C(F)(F)F)c5)ccc4N4CC[C@H]3C4)c2)cs1 [Example 583]

TRP Activity (EC1.5): A (A (EC1.5<1 μM))
Emax: > 150%
SMILES: O=C(Nc1ccnc(OC[C@@H](O)CO)n1)N1c2nc(-c3cccc(C(F)(F)F)c3)ccc2N2CC[C@H]1C2 [(9S)-N-{2-[(2S)-2,3-dihydroxypropoxy]pyrimidin-4-yl}-5-[3-(trifluoromethyl)phenyl]-1,6,8-triazatricyclo[7.2.1.0 {2,7}]dodeca-2(7),3,5-triene-8-carboxamide]

TRP Activity (EC1.5): B (B (EC1.5 1-25 μM))
Emax: > 150%
SMILES: O=C(Nc1ccccn1)N1c2nc(N3CCC(C(F)(F)F)C3)ccc2N2CC[C@H]1C2 (stereo partly drawn) [(9S)-N-(pyridin-2-yl)-5-[(3S)-3-(trifluoromethyl)pyrrolidin-1-yl]-1,6,8-triazatricyclo[7.2.1.0^{2,7}]dodeca-2(7),3,5-triene-8-carboxamide]

Tryp AVG EC1.5 (μM) [3]: A (A (EC1.5<1 μM))
SMILES: CC(=O)c1cccc(NC(=O)N2c3nc(-c4cccc(C(F)(F)F)c4)ccc3N3CC[C@H]2C3)c1 [Example 671]

Tryp AVG EC1.5 (μM) [3]: B (B (EC1.5 1-25 μM))
SMILES: O=C(Nc1ccncn1)N1c2nc(-c3cccc(C(F)(F)F)c3)ccc2N2C[C@@H](O)[C@H]1C2 [Example 669]

Tryp AVG EC1.5 (μM) [3]: A (A (EC1.5<1 μM))
SMILES: O=C(Nc1nnc(-c2cccnc2)s1)N1c2nc(-c3cccc(C(F)(F)F)c3)ccc2N2CC[C@H]1C2 [Example 651]

Tryp AVG EC1.5 (μM) [3]: B (B (EC1.5 1-25 μM))
SMILES: O=C(Nc1cnccn1)N1c2nc(-c3cncc(C(F)(F)F)c3)ccc2N2C[C@@H](O)[C@H]1C2 [Example 695]

Tryp AVG EC1.5 (μM) [3]: B (B (EC1.5 1-25 μM))
SMILES: O=C(Nc1cccnc1)N1c2nc(-c3cccc(Cl)c3)ccc2N2C[C@@H](O)[C@H]1C2 [Example 681]

Tryp AVG EC1.5 (μM) [3]: A (A (EC1.5<1 μM))
SMILES: O=C(Nc1cc(-c2cnco2)cc(-c2cnco2)c1)N1c2nc(-c3cccc(C(F)(F)F)c3)ccc2N2CC[C@H]1C2 [Example 743]

Tryp AVG EC1.5 (μM) [4]: B (B (EC1.5 1-25 μM))
SMILES: O=C(Nc1ccccn1)N1c2nc(-c3cccc(C(F)(F)F)c3F)ccc2N2CC[C@H]1C2 [Example 334]

TRP Activity (EC1.5): B (B (EC1.5 1-25 μM))
Emax: > 150%
SMILES: Cc1ccc(-c2ccc3c(n2)N(C(=O)Nc2cncc(OC[C@@H](O)CO)n2)[C@H]2CCN3C2)cn1 [(9S)-N-{6-[(2S)-2,3-dihydroxypropoxy]pyrazin-2-yl}-5-(6-methylpyridin-3-yl)-1,6,8-triazatricyclo[7.2.1.0 {2,7}]dodeca-2(7),3,5-triene-8-carboxamide]

TRP Activity (EC1.5): B (B (EC1.5 1-25 μM))
Emax: > 150%
SMILES: Cc1cc(-c2ccc3c(n2)N(C(=O)Nc2ccc4c(c2)OCCO4)[C@H]2CCN3C2)ccn1 [(9S)-N-(2,3-dihydro-1,4-benzodioxin-6-yl)-5-(2-methylpyridin-4-yl)-1,6,8-triazatricyclo[7.2.1.0 {2,7}]dodeca-2(7),3,5-triene-8-carboxamide]

Tryp AVG EC1.5 (μM) [4]: C (C (EC1.5>25 μM))
SMILES: CC(C)(C)OC(=O)N1CCCN(c2ccc3c(n2)N(C(=O)Nc2ccncn2)[C@H]2CCCN3C2)CC1 [Example 382]

Tryp AVG EC1.5 (μM) [1]: A (A (EC1.5<1 μM))
SMILES: N#Cc1cncc(-c2ccc3c(n2)N(C(=O)Nc2cnccn2)[C@H]2CCN3C2)c1 [Example 459]

Tryp AVG EC1.5 (μM) [3]: A (A (EC1.5<1 μM))
SMILES: NCC#Cc1ccc(NC(=O)N2c3nc(-c4cccc(C(F)(F)F)c4)ccc3N3CC[C@H]2C3)cc1-c1cnco1 [Example 766]

Tryp AVG EC1.5 (μM) [1]: A (A (EC1.5<1 μM))
SMILES: Cc1ccc(-c2ccc3c(n2)N(C(=O)Nc2nc(C)c(C)s2)[C@H]2CCCN3C2)cn1 [Example 506]

TRP Activity (EC1.5): B (B (EC1.5 1-25 μM))
Emax: > 150%
SMILES: O=C(Nc1ccccn1)N1c2nc(N3CCC[C@H]3C(F)(F)F)ccc2N2CCC[C@H]1C2 [(9S)-N-(pyridin-2-yl)-5-[(2S)-2-(trifluoromethyl)pyrrolidin-1-yl]-1,6,8-triazatricyclo[7.3.1.0 {2,7}]trideca-2(7),3,5-triene-8-carboxamide]

Tryp AVG EC1.5 (μM) [4]: A (A (EC1.5<1 μM))
SMILES: O=C(Nc1cccnn1)N1c2nc(-c3cncc(C(F)(F)F)c3)ccc2N2CCC[C@H]1C2 [Example 412]

Tryp AVG EC1.5 (μM) [4]: B (B (EC1.5 1-25 μM))
SMILES: COc1cc(NC(=O)N2c3nc(-c4cccc(CC(O)CO)c4)ccc3N3CC[C@H]2C3)ncn1 (stereo partly drawn) [Example 355]

TRP Activity (EC1.5): B (B (EC1.5 1-25 μM))
Emax: > 150%
SMILES: CC(CO)NC(=O)c1ccc2c(n1)N(C(=O)Nc1ccccn1)[C@H]1CCN2C1 (stereo partly drawn) [(9S)-5-N-(1-hydroxypropan-2-yl)-8-N-(pyridin-2-yl)-1,6,8-triazatricyclo[7.2.1.0^{2,7}]dodeca-2(7),3,5-triene-5,8-dicarboxamide]

Tryp AVG EC1.5 (μM) [3]: B (B (EC1.5 1-25 μM))
SMILES: O=C(Nc1cncc(F)c1)N1c2nc(-c3cncc(C(F)(F)F)c3)ccc2N2C[C@@H](O)[C@H]1C2 [Example 691]

Tryp AVG EC1.5 (μM) [3]: B (B (EC1.5 1-25 μM))
SMILES: Cc1nc(NC(=O)N2c3nc(-c4cccc(C(F)(F)F)c4)ccc3N3C[C@@H](O)[C@H]2C3)sc1C [Example 699]

Tryp AVG EC1.5 (μM) [1]: A (A (EC1.5<1 μM))
SMILES: O=C(Nc1cnccn1)N1c2nc(-c3ccc(Cl)c(C(F)(F)F)c3)ccc2N2CC[C@H]1C2 [Example 435]

Tryp AVG EC1.5 (μM) [4]: A (A (EC1.5<1 μM))
SMILES: N#Cc1cncc(-c2ccc3c(n2)N(C(=O)Nc2ccccn2)[C@H]2CCN3C2)c1 [Example 373]

Tryp AVG EC1.5 (μM) [4]: A (A (EC1.5<1 μM))
SMILES: COc1cncc(NC(=O)N2c3nc(-c4cccc(N5CCCC5)c4)ccc3N3CC[C@H]2C3)n1 [Example 366]

Tryp AVG EC1.5 (μM) [1]: A (A (EC1.5<1 μM))
SMILES: O=C(CCCC[C@@H]1SCC2NC(=O)NC21)NCCCCCC(=O)NCc1ccc(NC(=O)N2c3nc(-c4cccc(C(F)(F)F)c4)ccc3N3CCC[C@H]2C3)cc1 (stereo partly drawn) [Example 430]

Tryp AVG EC1.5 (μM) [4]: B (B (EC1.5 1-25 μM))
SMILES: O=C(Nc1cnccn1)N1c2nc(-c3cccc(C(F)(F)F)n3)ccc2N2CC[C@H]1C2 [Example 338]

Tryp AVG EC1.5 (μM) [1]: C (C (EC1.5>25 μM))
SMILES: Cc1ccc(-c2cccc(NC(=O)N3c4nc(-c5cccc(C(F)(F)F)c5)ccc4N4CC[C@H]3C4)c2)cc1C [Example 619]

Tryp AVG EC1.5 (μM) [3]: A (A (EC1.5<1 μM))
SMILES: O=C(Nc1cncc(F)c1)N1c2nc(-c3cccc(C(F)(F)F)c3)ccc2N2C[C@@H](O)[C@H]1C2 [Example 630]

Tryp AVG EC1.5 (μM) [1]: B (B (EC1.5 1-25 μM))
SMILES: O=C(Nc1ccccn1)N1c2nc(-c3cncc(F)c3)ccc2N2CCC1CC2 [Example 570]

Tryp AVG EC1.5 (μM) [2]: B (B (EC1.5 1-25 μM))
SMILES: COc1cc(NC(=O)N2c3nc(-c4cccc(Cl)c4)ccc3N3CC[C@H]2C3)nc(OC)n1 [Example 103]
